Test [1] addresses T1, IR (Homo sapiens, UniProt P06213). Kind of test: Phage ELISA, binding of phage clones to IR (ratio over background). The note with it: ratio of IR divided by ratio of IGF-1R. (In an ELISA, binding on a coated surface is turned into a signal by an enzyme label.)
Target sequence in this assay (P06213 28-758 limits assumed): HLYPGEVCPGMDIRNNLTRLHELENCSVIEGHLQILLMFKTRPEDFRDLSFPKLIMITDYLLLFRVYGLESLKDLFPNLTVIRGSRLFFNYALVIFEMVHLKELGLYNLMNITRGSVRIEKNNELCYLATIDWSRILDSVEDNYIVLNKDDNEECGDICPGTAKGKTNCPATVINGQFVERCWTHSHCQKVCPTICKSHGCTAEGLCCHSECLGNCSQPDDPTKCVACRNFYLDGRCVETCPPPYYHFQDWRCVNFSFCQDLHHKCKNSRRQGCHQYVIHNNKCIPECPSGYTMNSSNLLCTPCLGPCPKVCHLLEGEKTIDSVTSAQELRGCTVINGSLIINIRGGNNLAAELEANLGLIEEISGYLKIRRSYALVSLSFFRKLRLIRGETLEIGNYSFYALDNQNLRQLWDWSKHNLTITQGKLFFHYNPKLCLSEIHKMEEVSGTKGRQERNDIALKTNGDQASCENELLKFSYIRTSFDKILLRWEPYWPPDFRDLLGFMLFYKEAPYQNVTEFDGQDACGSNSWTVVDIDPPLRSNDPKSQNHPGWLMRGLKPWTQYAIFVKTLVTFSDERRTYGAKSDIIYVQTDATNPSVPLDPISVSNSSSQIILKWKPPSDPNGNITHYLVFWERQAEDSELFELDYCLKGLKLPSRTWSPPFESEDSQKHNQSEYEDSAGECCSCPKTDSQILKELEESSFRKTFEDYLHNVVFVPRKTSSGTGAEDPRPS
Target sequence in this assay (P06213 763-956 limits assumed): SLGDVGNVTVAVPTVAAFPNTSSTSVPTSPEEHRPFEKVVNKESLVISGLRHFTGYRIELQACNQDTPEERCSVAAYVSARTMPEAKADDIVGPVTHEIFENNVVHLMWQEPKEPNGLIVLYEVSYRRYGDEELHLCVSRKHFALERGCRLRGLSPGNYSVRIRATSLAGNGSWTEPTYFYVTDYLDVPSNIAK
Test [2] has as its target T2, IGF-1R (Homo sapiens, UniProt P08069). Kind of test: Phage ELISA, binding of phage clones to IGF-1R (ratio over background). As to conditions: ratio of IGF-1R divided by ratio of IR.
For test [3], the target named is T1, IR. In words: IR-IC50 Biacore. The arrangement: replacing the transmembrane domain and the intracellular domain of IR with constant domains from immunoglobulin Fc or λ subunits; made in house; host or cells: human embryonic kidney 293 cells (Bass et al.).
Target sequence in this assay (P06213 28-758 limits assumed): as the sequence (P06213 28-758 limits assumed) above
Target sequence in this assay (P06213 763-1382 limits assumed): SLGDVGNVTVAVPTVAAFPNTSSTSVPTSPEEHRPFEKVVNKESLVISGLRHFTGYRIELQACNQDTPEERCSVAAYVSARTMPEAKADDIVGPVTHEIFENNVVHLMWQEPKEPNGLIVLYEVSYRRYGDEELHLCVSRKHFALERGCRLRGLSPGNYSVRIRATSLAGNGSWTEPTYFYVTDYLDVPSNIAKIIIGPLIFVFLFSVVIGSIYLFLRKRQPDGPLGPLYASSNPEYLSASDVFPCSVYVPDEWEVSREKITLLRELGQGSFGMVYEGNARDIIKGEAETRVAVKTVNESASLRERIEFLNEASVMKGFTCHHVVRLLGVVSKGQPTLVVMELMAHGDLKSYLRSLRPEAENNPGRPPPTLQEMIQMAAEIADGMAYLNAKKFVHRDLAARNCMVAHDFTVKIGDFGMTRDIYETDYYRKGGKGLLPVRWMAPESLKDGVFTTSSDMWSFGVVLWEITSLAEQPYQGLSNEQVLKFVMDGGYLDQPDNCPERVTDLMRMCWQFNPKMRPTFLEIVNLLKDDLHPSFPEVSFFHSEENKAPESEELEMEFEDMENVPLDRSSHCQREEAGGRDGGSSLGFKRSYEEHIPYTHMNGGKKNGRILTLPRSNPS
Test [4] has as its target T3, soluble human insulin receptor-immunoglobulin heavy chain chimera (sIR-Fc) (Homo sapiens, UniProt P06213).
T3 construct: replacing the transmembrane domain and the intracellular domain of IR with constant domains from immunoglobulin Fc or λ subunits; made in house; host or cells: human embryonic kidney 293 cells (Bass et al.)
In words: TR-FRET competition with biotinylated S175 (b-S175) for sIR-Fc. It is filed as binding. As to conditions: target sIR-Fc, label b-S175; for Hill, sIR-Fc, b-S175, FRET: Hill slope. A general note: In TR-FRET formats the signal depends on donor and acceptor labels being close together.

In test [5] the target is T2, IGF-1R. Kind of test: TR-FRET competition with biotinylated-20E2 for rhIGF-1R. The note with it: TR-FRET (rhIGF-1R, b-20E2) versus FP (sIR-Fc), summary of Table 22.
For test [6], the target named is T4, human insulin receptor (HIR) (Homo sapiens, UniProt P06213).
T4 construct: made in house
T4 sequence (P06213 28-758 limits assumed): as the sequence (P06213 28-758 limits assumed) above
T4 sequence (P06213 763-1382 limits assumed): as the sequence (P06213 763-1382 limits assumed) above
Kind of test: Insulin receptor binding, competition with 125I-labeled insulin (HIR Kd).

Test [7] relates to free fat cells (adipocytes). Kind of test: Adipocyte / free fat cell (FFC) assay, 3H glucose incorporation into lipid.
Test [8] concerns soluble human insulin mini-receptor (mIR). Kind of test: Fluorescence polarization, competition with FITC-RP9 for mIR. It is filed as binding. How it is done: The FP assays were performed in a 384-well black microplate with a final volume of 30 μl.
A general note: Fluorescence polarisation rises when a labelled molecule tumbles more slowly, as on binding a larger partner.

The target in test [9] is T3, soluble human insulin receptor-immunoglobulin heavy chain chimera (sIR-Fc). Kind of test: TR-FRET competition with biotinylated RP9 (b-RP9) for sIR-Fc. Format: binding. As to conditions: for Hill, sIR-Fc, b-RP9, FRET: Hill slope, target sIR-Fc, label b-RP9, TR-FRET.
The target is the same in test [10]. Kind of test: Fluorescence polarization, competition with FITC-RP9 for sIR-Fc. It is filed as binding. As to conditions: for Hill, sIR-Fc, FITC-RP9, FP: Hill slope.
The subject of test [11] is MiaPaCa cells. Kind of test: MiaPaCa cell proliferation assay, IGF-1R agonist format. It is filed as cell-based, human. The note with it: for MiaPaCa Agonist: MiaPaCa cell proliferation, agonist effect.
Test [12] has as its system FDC-P2 cells expressing the IL-3 and human IGF-1R receptors. In words: IGF-1 proliferation assay in FDC-P2 cells, agonist format. The note with it: for agonist activity at IGF-1R, in words / EC50: FDC-P2 cells.
Test [13] has the same test system. Kind of test: IGF-1 proliferation assay in FDC-P2 cells, antagonist format. The note with it: FDC-P2 cells.
For test [14], the system named is MCF-7 cells. In words: MCF-7 cell proliferation assay, IGF-1R agonist format. Format: cell-based, human. As to conditions: for MCF-7 Agonist: MCF-7 cell proliferation, agonist effect. An excerpt:
; FIGS. 65A-65F), and were used for subsequent experiments.

For test [15], the target named is T5, soluble HIR ectodomain (sIR) (Homo sapiens, UniProt P06213).
T5 construct: soluble HIR ectodomain (sIR); Kristensen et al., 1998
T5 sequence (P06213 28-758 limits assumed): as the sequence (P06213 28-758 limits assumed) above
T5 sequence (P06213 763-956 limits assumed): as the sequence (P06213 763-956 limits assumed) above
In words: Fluorescence polarization, competition with FITC-RP9 for sIR. Format: binding. As to conditions: Hill slope, target sIR, label FITC-RP9.

The mark [16] stands for this setting: free fat cell assay class, Table 9.
[17] abbreviates: target sIR-Fc, label FITC-RP9, fluorescence polarization.

Read-outs that look alike come from different tables or passages of the source. Residues, ends and D or L forms follow the SMILES beside them. No end group written: not given here.

T3 sequence (P06213 28-758 limits assumed, stated change not applied): as the sequence (P06213 28-758 limits assumed) above
T3 sequence (P06213 763-956 limits assumed, stated change not applied): as the sequence (P06213 763-956 limits assumed) above
T2 sequence (P08069 31-736 limits assumed): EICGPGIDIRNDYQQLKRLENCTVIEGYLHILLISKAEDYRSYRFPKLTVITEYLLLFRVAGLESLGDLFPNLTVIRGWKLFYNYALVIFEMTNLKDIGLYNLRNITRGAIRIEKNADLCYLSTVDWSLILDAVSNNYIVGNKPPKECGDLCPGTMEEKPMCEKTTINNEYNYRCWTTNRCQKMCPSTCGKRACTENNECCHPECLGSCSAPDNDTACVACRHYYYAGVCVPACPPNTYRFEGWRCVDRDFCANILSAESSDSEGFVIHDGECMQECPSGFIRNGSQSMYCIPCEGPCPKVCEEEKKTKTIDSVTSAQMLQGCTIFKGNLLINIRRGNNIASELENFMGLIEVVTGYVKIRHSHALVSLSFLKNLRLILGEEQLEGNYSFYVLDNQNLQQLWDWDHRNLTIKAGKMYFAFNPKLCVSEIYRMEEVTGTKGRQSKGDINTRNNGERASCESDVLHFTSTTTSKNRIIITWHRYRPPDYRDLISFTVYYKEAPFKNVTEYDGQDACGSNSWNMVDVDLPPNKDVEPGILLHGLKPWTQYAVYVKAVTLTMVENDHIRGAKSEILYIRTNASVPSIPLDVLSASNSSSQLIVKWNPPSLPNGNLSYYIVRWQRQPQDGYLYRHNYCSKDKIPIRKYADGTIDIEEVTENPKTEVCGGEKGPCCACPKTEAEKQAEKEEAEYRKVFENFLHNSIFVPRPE
T2 sequence (P08069 741-935 limits assumed): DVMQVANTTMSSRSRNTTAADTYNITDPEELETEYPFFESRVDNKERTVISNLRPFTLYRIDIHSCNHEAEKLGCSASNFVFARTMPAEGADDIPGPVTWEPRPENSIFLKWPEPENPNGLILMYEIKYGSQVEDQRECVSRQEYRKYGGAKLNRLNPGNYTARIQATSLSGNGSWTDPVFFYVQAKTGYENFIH

For orientation: IC50 means the concentration needed to halve the response being measured. For the molecule `CC(C)C[C@H](NC(=O)CNC(=O)[C@H](CCCNC(=N)N)NC(=O)CNC(=O)[C@H](CCC(=O)O)NC(=O)[C@@H](N)C(C)C)C(=O)N[C@@H](Cc1ccccc1)C(=O)N[C@@H](Cc1ccc(O)cc1)C(=O)N[C@@H](CC(=O)O)C(=O)N[C@@H](CC(C)C)C(=O)N[C@@H](CC(C)C)C(=O)N[C@@H](CCCNC(=N)N)C(=O)N[C@@H](CCC(N)=O)C(=O)N[C@@H](CC(C)C)C(=O)N[C@@H](CC(C)C)C(=O)N[C@@H](C)C(=O)N[C@@H](CCCNC(=N)N)C(=O)N[C@@H](CCCNC(=N)N)C(=O)N[C@@H](CCC(N)=O)C(=O)N[C@@H](CC(N)=O)C(=O)NCC(=O)O` [20E2B-3-C6-IGFR], the “Comparisons IR/IGF-1R” value in test [1] was determined as 0.1. Moreover, in test [2], the “Comparisons IGF-1R/IR” value is listed as 14.8. In [3], the IC50 was over 5000 nM.

In the case of `CC(C)C[C@H](NC(=O)[C@H](Cc1c[nH]c2ccccc12)NC(=O)[C@H](CCC(=O)O)NC(=O)[C@H](Cc1ccc(O)cc1)NC(=O)CNC(=O)[C@@H]1CCCN1C(=O)[C@H](Cc1c[nH]c2ccccc12)NC(=O)[C@@H](NC(=O)[C@@H](NC(=O)CNC(=O)CN)[C@@H](C)O)C(C)C)C(=O)N[C@@H](CCCNC(=N)N)C(=O)N[C@@H](CC(N)=O)C(=O)N[C@@H](C)C(=O)O` [Peptide E8], the “Hill, sIR-Fc, b-S175, FRET” value in [4] is given as −0.74. Moreover, the IC50 in test [4] is 755 nM; in test [6] (read-out: IC50 (nM), HIR, 125I-insulin, RRA, target HIR, label 125I-insulin, radio-receptor assay), 2200 nM; in [8] (target mIR, label FITC-RP9, fluorescence polarization, read-out: IC50 (nM), mIR, FITC-RP9, FP), over 100000 nM; in [10] (target sIR-Fc, label FITC-RP9, fluorescence polarization, read-out: IC50 (nM), sIR-Fc, FITC-RP9, FP) it was 207 nM; in test [10] (vs. FITC-RP9, read-out: FP sIR-Fc IC50), 206 nM. Besides, in [5], the “binding to IGF-1R compared with IR, in words” value was “comparable binding to IGF-1R and IR”. The FFC entry in test [7] (setting [16]) is “−”. The “competition with peptide ligands such as FITC-RP9 for binding to mIR” value in test [8] is “did not compete”. Also, the “competition with FITC-RP9 or b-RP9 peptides for binding to sIR-Fc” value in test [9] is on record as “able to compete”. In test [10] (setting [17]), the “Hill, sIR-Fc, FITC-RP9, FP” value is reported as −0.49.

For the molecule `CC[C@H](C)[C@H](NC(=O)CN)C(=O)N[C@H](C(=O)N[C@@H](CO)C(=O)N[C@@H](CCC(N)=O)C(=O)N[C@@H](CO)C(=O)N[C@H]1CSSC[C@@H](C(=O)N[C@@H](Cc2c[nH]c3ccccc23)C(=O)O)NC(=O)[C@H](Cc2c[nH]c3ccccc23)NC(=O)[C@H](Cc2c[nH]c3ccccc23)NC(=O)[C@@H]2CCCN2C(=O)[C@H](CC(=O)O)NC(=O)[C@H](CO)NC(=O)[C@H](C(C)C)NC(=O)[C@H](CCC(N)=O)NC(=O)CNC(=O)[C@H](C)NC(=O)[C@H](Cc2ccccc2)NC(=O)[C@H](Cc2c[nH]c3ccccc23)NC(=O)[C@H](CC(=O)O)NC(=O)[C@H](Cc2ccc(O)cc2)NC(=O)[C@H](Cc2ccccc2)NC(=O)[C@H](CO)NC(=O)[C@H](CCC(=O)O)NC(=O)[C@@H]2CCCN2C1=O)[C@@H](C)CC` [Peptide G33] (HELM PEPTIDE1{G.I.I.S.Q.S.C.P.E.S.F.Y.D.W.F.A.G.Q.V.S.D.P.W.W.C.W}$PEPTIDE1,PEPTIDE1,7:R3-25:R3$$$V2.0; N-terminus and C-terminus assumed; bridges inferred), the “MiaPaCa Agonist” value in test [11] is on record as “+”. Besides, the “FDC-P2 Agonist” value in test [12] (FDC-P2 cell proliferation, agonist effect) is reported as “+”. Also, the “agonist activity at IGF-1R, in words” value in test [12] is on record as “IGF-1R agonist activity”. Further, the EC50 in test [12] (read-out: ED50, agonist activity at IGF-1R) was about 10000 nM. For the same molecule, the “binding to IGF-1R compared with IR, in words” value in test [5] was “comparable binding to IGF-1R and IR”. The “antagonist activity at IGF-1R, in words” value in test [13] is given as “no antagonist activity”. In addition, the “potency / affinity at IR, in words” value in test [10] (FP with FITC-RP9, summary of Table 22) is reported as “less potent”. In test [10] (higher values indicated higher affinity for IR than IGF-1R), the “Bndg Ratio IGF-1R/IR” value amounted to 1.3. Moreover, the “IGF-1R agonist activity, proliferation of MCF-7 and MiaPaCa cells, in words” value in test [14] (MCF-7 and MiaPaCa cells (Tables 27-28)) is “IGF-1R agonist activity”. The “MCF-7 Agonist” value in test [14] was “+”.

As for `CC(C)C[C@H](NC(=O)[C@H](CCC(=O)O)NC(=O)[C@H](C)NC(=O)[C@@H](NC(=O)[C@H](Cc1ccccc1)NC(=O)[C@H](Cc1c[nH]c2ccccc12)NC(=O)[C@H](CC(=O)O)NC(=O)[C@H](Cc1ccc(O)cc1)NC(=O)[C@H](Cc1ccccc1)NC(=O)[C@H](CC(N)=O)NC(=O)[C@H](C)NC(=O)[C@H](CC(N)=O)NC(=O)[C@H](CCCNC(=N)N)NC(=O)[C@H](CCC(N)=O)NC(=O)[C@H](CC(C)C)NC(=O)[C@H](Cc1c[nH]c2ccccc12)NC(=O)[C@H](CC(=O)O)NC(=O)[C@@H](NC(=O)[C@H](CCCNC(=N)N)NC(=O)CN)C(C)C)C(C)C)C(=O)NCC(=O)O` [Peptide S175], in [15], the “Hill, sIR, FITC-RP9, FP” value was −0.36. Also, in test [4], the “Hill, sIR-Fc, b-S175, FRET” value is −0.58. Moreover, the “agonist activity at IGF-1R, in words” value in test [12] was “IGF-1R agonist activity”. In [12] (read-out: Cellular EC50, stimulation of proliferation), the EC50 came out at 10000 nM. For the same molecule, the “binding to IGF-1R compared with IR, in words” value in test [5] is “high binding ratios for IGF-1R over IR”. Further, the FFC entry in [7] (FFC assay potency grade, 0, + to ++++++, −) was “+++”. The “Hill, sIR-Fc, b-RP9, FRET” value in [9] is −0.74. In addition, the “Hill, sIR-Fc, FITC-RP9, FP” value in test [10] (setting [17]) is reported as −0.56.

Turning to `CC(C)C[C@H](NC(=O)[C@H](CCC(N)=O)NC(=O)[C@H](CCCNC(=N)N)NC(=O)[C@H](CCC(=O)O)NC(=O)[C@H](Cc1ccccc1)NC(=O)[C@H](Cc1c[nH]c2ccccc12)NC(=O)[C@H](CC(=O)O)NC(=O)[C@H](Cc1ccc(O)cc1)NC(=O)[C@H](Cc1ccccc1)NC(=O)[C@H](CO)NC(=O)[C@@H](N)CCC(=O)O)C(=O)NCC(=O)O` [Peptide S390], the “Hill, sIR, FITC-RP9, FP” value in test [15] is −0.64. Moreover, the “Hill, sIR-Fc, b-S175, FRET” value in [4] is −0.49. The “activity in the free fat cell (FFC) assay / at IR, in words” value in [7] was “potency similar to full-length RP9 monomer peptides”. Besides, the FFC result is listed as “+” in test [7] (Table 6, free fat cell assay); “+” in test [7] (setting [16]); “+” in test [7] (free fat cell assay potency class, Table 7). The “Hill, sIR-Fc, b-RP9, FRET” value in test [9] is given as −0.49.

In turn, GRFYGWFQDAIDQLMPWGFD [RP-3] came in with an IC50 in test [3] of over 10000 nM.

The Kd is the free concentration of one partner at which half of the binding sites on the other are occupied at equilibrium, for simple one-to-one binding. Read a high Kd as weaker binding. In the case of GSLDESFYDWFERQL [Peptide S395], binding in test [6] (Table 6) was put at a Kd of 91 nM. The FFC result in [7] (Table 6, free fat cell assay) is on record as “+”.

In [3], GSRPVFHEQFYEWFVDQLGL [RP-1] yielded an IC50 of 1000 nM.

Regarding “Insulin-like growth factor 1 [IGF-1, reference compound]”, the EC50 is 5 nM in [11] (MiaPaCa cells, serum-free conditions, read-out: ED50, proliferation) and 5 nM in test [14] (MCF-7 cells, serum-free conditions, read-out: ED50, proliferation).

In [3], PPWGARFYDAIEQLVFDNL [RP-4] came in with an IC50 of 5000 nM.

In the case of QSFYDYIEELLGGEWKK [Peptide 20E2-PD1-IR], the IC50 in test [3] was over 5000 nM.

As for “RP6-D8B12 (TFYSCLASLLTGTPQPNRGPWERCRWLEQERAWIWCEIQGSGCRA; not fully specified; cysteine pairing not given here)”, the “MiaPaCa Agonist” value in [11] was “+”. Further, the “MCF-7 Agonist” value in test [14] is given as “+”.

On to RSEASFHVEFYSWFEEQLRS [RP-2], for which the IC50 in [3] came to 1000 nM.
